Test results as given in patent US20210069189A1, “TREATMENT OF NEURODEGENERATIVE DISEASES” (BENEVOLENTAI BIO LIMITED, priority 2017, published 2021).

Tests used:
[1] = system: murine Hb9-GFP+ motor neurons co-cultured with ALS patient-derived iAstrocytes; experiment: ALS patient iAstrocyte / mouse Hb9-GFP+ motor neuron co-culture, motor neuron survival; assay type: cell-based, human iAstrocytes; settings: iAstrocytes pre-treated 24 hours with various concentrations; viable motor neurons at 72 h as percentage of 24 h, normalised to DMSO control; FIG. 2
Method: ALS iAstrocytes were pre-treated with various concentrations of nilotinib, bafetinib or bosutinib for 24 hours, prior to murine Hb9-GFP motor neuron seeding in co-culture. The number of viable motor neurons was then measured 24 and 72 hours after motor neuron seeding, and the percentage motor neuron survival was calculated, and then normalised to the untreated control of the respective line. *P<0.05, **P<0.01, ***P<0.001. One-way ANOVA with Dunnett's post-hoc test. Data are mean±SD. n=5-6.
This example describes the effect of nilotinib, bafetinib and bosutinib on motor neuron survival in an in vitro model of ALS. This model uses human fibroblast-derived astrocytes and mouse Hb9−GFP+ motor neurons in co-culture (Meyer et al., 2014, PNAS 111, 829-832). The fibroblasts were reprogrammed to induced neural progenitor cells (iNPCs), which were differentiated into Astrocytes. Astrocytes derived from ALS patients cause death of the wild-type Hb9−GFP+ mouse motor neurons in co-culture, a property not seen in astrocytes derived from normal (non-ALS) patients. […]
3,000 human iAstrocytes were seeded per well on fibronectin-coated 384-well plates. […] Hb9− GFP+ motor neurons were imaged after 24 and 72 hours using an INCELL analyser 2000 (GE Healthcare), and the number of viable motor neurons was counted using the INCELL analyser software (GE Healthcare).
The number of viable motor neurons (defined as GFP+ motor neurons with at least 1 axon) 25 that survived after 72 hours in co-culture was calculated as a percentage of the number of viable motor neurons after 24 hours in co-culture. […]

[2] = system: ALS; settings: ALS patients; cited from earlier work
[3] = molecular target: P-glycoprotein (P-gp) (Homo sapiens, UniProt P08183); settings: cited from earlier work
[4] = system: SOD1^G93A mouse model of ALS; settings: cited from earlier work

Sequence of P-glycoprotein (P-gp) (P08183 whole entry): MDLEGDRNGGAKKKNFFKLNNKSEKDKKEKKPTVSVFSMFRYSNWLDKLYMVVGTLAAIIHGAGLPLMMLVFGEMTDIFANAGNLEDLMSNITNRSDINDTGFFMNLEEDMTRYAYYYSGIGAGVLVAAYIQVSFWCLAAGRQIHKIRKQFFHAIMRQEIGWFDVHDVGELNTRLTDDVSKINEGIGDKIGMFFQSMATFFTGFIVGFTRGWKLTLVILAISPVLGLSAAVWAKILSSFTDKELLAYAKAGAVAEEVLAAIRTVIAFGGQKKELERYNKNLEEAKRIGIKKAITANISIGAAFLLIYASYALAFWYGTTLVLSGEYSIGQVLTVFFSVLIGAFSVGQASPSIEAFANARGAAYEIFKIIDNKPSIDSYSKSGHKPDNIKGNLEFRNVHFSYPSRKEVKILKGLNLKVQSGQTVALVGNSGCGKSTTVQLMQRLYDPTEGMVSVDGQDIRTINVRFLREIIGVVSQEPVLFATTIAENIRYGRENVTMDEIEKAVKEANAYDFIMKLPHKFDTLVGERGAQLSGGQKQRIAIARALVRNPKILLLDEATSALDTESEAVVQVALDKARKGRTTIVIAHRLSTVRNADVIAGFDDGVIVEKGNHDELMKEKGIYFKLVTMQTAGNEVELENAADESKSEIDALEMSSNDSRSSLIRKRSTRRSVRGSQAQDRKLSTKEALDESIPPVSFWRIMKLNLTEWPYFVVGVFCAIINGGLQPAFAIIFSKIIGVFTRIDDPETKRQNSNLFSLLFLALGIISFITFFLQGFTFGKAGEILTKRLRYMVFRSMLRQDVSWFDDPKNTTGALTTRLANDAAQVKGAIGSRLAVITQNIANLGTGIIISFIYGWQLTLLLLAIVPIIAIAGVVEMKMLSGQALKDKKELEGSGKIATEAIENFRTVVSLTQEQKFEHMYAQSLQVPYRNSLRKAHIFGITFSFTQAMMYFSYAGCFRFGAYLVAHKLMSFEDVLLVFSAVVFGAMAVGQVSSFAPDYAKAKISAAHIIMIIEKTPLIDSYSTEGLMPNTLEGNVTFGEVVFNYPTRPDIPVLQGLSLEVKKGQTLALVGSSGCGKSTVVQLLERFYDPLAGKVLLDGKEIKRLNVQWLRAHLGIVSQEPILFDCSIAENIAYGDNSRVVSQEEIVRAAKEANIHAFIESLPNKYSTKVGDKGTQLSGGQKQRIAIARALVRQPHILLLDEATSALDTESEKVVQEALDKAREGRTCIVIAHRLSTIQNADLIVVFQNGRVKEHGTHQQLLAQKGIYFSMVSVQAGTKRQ

C=CC(=O)Nc1cc2c(Nc3ccc(F)c(Cl)c3)ncnc2cc1OCCCN1CCOCC1 [canertinib]
motor neuron survival [1]: no such increase in survival

Nc1nc2ccc(OC(F)(F)F)cc2s1 [Riluzole]
prolongation of life [2]: 2-3 months

Cc1cn(-c2cc(NC(=O)c3ccc(C)c(Nc4nccc(-c5cccnc5)n4)c3)cc(C(F)(F)F)c2)cn1 [nilotinib]
P-glycoprotein substrate [3]: P-glycoprotein (P-gp) substrate | motor neuron survival [1]: dose-dependent increase in motor neuron survival

C#Cc1cccc(Nc2ncnc3cc(OCCOC)c(OCCOC)cc23)c1 [erlotinib]
lifespan [4]: failed to extend lifespan | penetration into the central nervous system [4]: penetrated into the central nervous system | protection of motor synapses [4]: did not protect motor synapses | symptom delay (disease onset and progression) [4]: modest yet statistically significant symptom delay

Cc1ccc(NC(=O)c2ccc(CN3CCN(C)CC3)cc2)cc1Nc1nc(-c2cccnc2)cs1 [masitinib]
motor neuron survival [1]: no such increase in survival
